Legend:
Type in all cases: in vivo
Kochia (Kochia scoparia) [1] = assay: Test A preemergence; settings: Bassia scoparia, pre-emergence, 240 h; for pest or weed control at 500 g/ha: 500 g ai/ha, preemergence; for pest or weed control at 125 g/ha: Preemergence, 125 g ai/ha
In short: (§1)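 Each rating is a visual injury score from 0 to 100 given about 10 d after treatment, judged against untreated controls kept alongside in the greenhouse. In loam soil–sand blend, seeds got a preemergence directed soil spray, while postemergence plants were 2 to 10 cm tall at spraying.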

[2] = test system: barnyardgrass (Echinochloa crus-galli); assay: Test A preemergence; settings: Echinochloa crus-galli, pre-emergence, 240 h; for pest or weed control at 500 g/ha: 500 g ai/ha, preemergence; for pest or weed control at 125 g/ha: Preemergence, 125 g ai/ha
In short: as §1

[3] = test system: pigweed (Amaranthus retroflexus); assay: Test A preemergence; settings: Amaranthus retroflexus, pre-emergence, 240 h; for pest or weed control at 500 g/ha: 500 g ai/ha, preemergence; for pest or weed control at 125 g/ha: Preemergence, 125 g ai/ha
[4] = test system: ragweed (common ragweed, Ambrosia elatior); assay: Test A preemergence; settings: Ambrosia artemisiifolia, pre-emergence, 240 h; for pest or weed control at 500 g/ha: 500 g ai/ha, preemergence; for pest or weed control at 125 g/ha: Preemergence, 125 g ai/ha
In short: as §1

[5] = test system: ryegrass, Italian (Italian ryegrass, Lolium multiflorum); assay: Test A preemergence; settings: Lolium multiflorum, pre-emergence, 240 h, 0 to 100 scale (0 no effect, 100 complete control), read-out: Plant response rating, Ryegrass, Italian; for pest or weed control at 125 g/ha: Preemergence, 125 g ai/ha; for pest or weed control at 500 g/ha: 500 g ai/ha, preemergence
In short: as §1

[6] = test system: Galium (catchweed bedstraw, Galium aparine); assay: Test A postemergence; settings: Galium, post-emergence, 240 h, Postemergence; for pest or weed control at 125 g/ha: 125 g ai/ha, visual rating about 10 d after treatment, read-out: Galium plant response rating (0 to 100 scale); for pest or weed control at 500 g/ha: 500 g ai/ha, visual injury, 0 to 100 scale (0 no effect, 100 complete control), approx. 10 d, read-out: Plant response rating, Galium
In short: as §1

Kochia (Kochia scoparia) [7] = assay: Test A postemergence; settings: Bassia scoparia, post-emergence, 240 h, Postemergence; for pest or weed control at 125 g/ha: 125 g ai/ha, visual rating about 10 d after treatment, read-out: Kochia plant response rating (0 to 100 scale); for pest or weed control at 500 g/ha: 500 g ai/ha, visual injury, 0 to 100 scale (0 no effect, 100 complete control), approx. 10 d, read-out: Plant response rating, Kochia
In short: as §1

[8] = test system: barnyardgrass (Echinochloa crus-galli); assay: Test A postemergence; settings: Echinochloa crus-galli, post-emergence, 240 h, Postemergence; for pest or weed control at 125 g/ha: 125 g ai/ha, visual rating about 10 d after treatment, read-out: Barnyardgrass plant response rating (0 to 100 scale, 0 no effect, 100 complete control); for pest or weed control at 500 g/ha: 500 g ai/ha, visual injury, 0 to 100 scale (0 no effect, 100 complete control), approx. 10 d, read-out: Plant response rating, Barnyardgrass
In short: as §1

[9] = test system: blackgrass (Alopecurus myosuroides); assay: Test A postemergence; settings: Alopecurus myosuroides, post-emergence, 240 h, Postemergence; for pest or weed control at 125 g/ha: 125 g ai/ha, visual rating about 10 d after treatment, read-out: Blackgrass plant response rating (0 to 100 scale); for pest or weed control at 500 g/ha: 500 g ai/ha, visual injury, 0 to 100 scale (0 no effect, 100 complete control), approx. 10 d, read-out: Plant response rating, Blackgrass
In short: as §1

corn (Zea mays) = assay: Test A postemergence; settings: Zea mays, post-emergence, 240 h, Postemergence; for plant injury at 125 g/ha: 125 g ai/ha, visual rating about 10 d after treatment, read-out: Corn plant response rating (0 to 100 scale); for Corn plant response rating (crop injury, 0 = no effect, 100 = complete kill) at 500 g/ha: 500 g ai/ha, visual injury, 0 to 100 scale (0 no effect, 100 complete control), approx. 10 d
In short: as §1

[10] = test system: giant foxtail (Setaria faberii); assay: Test A postemergence; settings: Setaria faberi, post-emergence, 240 h, Postemergence; for pest or weed control at 125 g/ha: 125 g ai/ha, visual rating about 10 d after treatment, read-out: Foxtail, Giant plant response rating (0 to 100 scale); for pest or weed control at 500 g/ha: 500 g ai/ha, visual injury, 0 to 100 scale (0 no effect, 100 complete control), approx. 10 d, read-out: Plant response rating, Foxtail, Giant
In short: as §1

[11] = test system: pigweed (Amaranthus retroflexus); assay: Test A postemergence; settings: Amaranthus retroflexus, post-emergence, 240 h, Postemergence; for pest or weed control at 125 g/ha: 125 g ai/ha, visual rating about 10 d after treatment, read-out: Pigweed plant response rating (0 to 100 scale); for pest or weed control at 500 g/ha: 500 g ai/ha, visual injury, 0 to 100 scale (0 no effect, 100 complete control), approx. 10 d, read-out: Plant response rating, Pigweed
In short: as §1

[12] = test system: ragweed (common ragweed, Ambrosia elatior); assay: Test A postemergence; settings: Ambrosia artemisiifolia, post-emergence, 240 h, Postemergence; for pest or weed control at 125 g/ha: 125 g ai/ha, visual rating about 10 d after treatment, read-out: Ragweed plant response rating (0 to 100 scale); for pest or weed control at 500 g/ha: 500 g ai/ha, visual injury, 0 to 100 scale (0 no effect, 100 complete control), approx. 10 d, read-out: Plant response rating, Ragweed
In short: as §1

[13] = test system: ryegrass, Italian (Italian ryegrass, Lolium multiflorum); assay: Test A postemergence; settings: Lolium multiflorum, post-emergence, 240 h, Postemergence; for pest or weed control at 125 g/ha: 125 g ai/ha, visual rating about 10 d after treatment, read-out: Ryegrass, Italian plant response rating (0 to 100 scale); for pest or weed control at 500 g/ha: 500 g ai/ha, visual injury, 0 to 100 scale (0 no effect, 100 complete control), approx. 10 d, read-out: Plant response rating, Ryegrass, Italian
In short: as §1

[14] = test system: wheat (Triticum aestivum); assay: Test A postemergence; settings: Triticum aestivum, post-emergence, 240 h, Postemergence; for plant injury at 125 g/ha: 125 g ai/ha, visual rating about 10 d after treatment, read-out: Wheat plant response rating (0 to 100 scale); for plant injury at 500 g/ha: 500 g ai/ha, visual injury, 0 to 100 scale (0 no effect, 100 complete control), approx. 10 d, read-out: Plant response rating, Wheat
In short: as §1

[15] = 0 to 100 scale (0 no effect, 100 complete control), read-out: Plant response rating, Kochia
[16] = 0 to 100 scale (0 no effect, 100 complete control), read-out: Plant response rating, Barnyardgrass
[17] = 0 to 100 scale (0 no effect, 100 complete control), read-out: Plant response rating, Pigweed
[18] = 0 to 100 scale (0 no effect, 100 complete control), read-out: Plant response rating, Ragweed

CN1C[C@H](c2ccc3c(c2)CCO3)[C@@H](C(=O)Nc2ccc(F)c(F)c2F)C1=O [Compound 1323] was tested, and the pest or weed control at 500 g/ha (Kochia (Kochia scoparia) [1]; 0 to 100 scale where 0 is no effect and 100 is complete control, read-out: Kochia plant response rating) was 90%, the pest or weed control at 125 g/ha (Kochia (Kochia scoparia) [1]; [15]) was 80% and the pest or weed control at 500 g/ha ([2]; 0 to 100 scale where 0 is no effect and 100 is complete control, read-out: Barnyardgrass plant response rating) was 90%. For the same molecule, the pest or weed control at 125 g/ha [2, 16] was 90%, the pest or weed control at 500 g/ha ([3]; 0 to 100 scale where 0 is no effect and 100 is complete control, read-out: Pigweed plant response rating) was 40% and the pest or weed control at 125 g/ha [3, 17] was 0%. The pest or weed control at 500 g/ha ([4]; 0 to 100 scale where 0 is no effect and 100 is complete control, read-out: Ragweed plant response rating) was 70%, the pest or weed control at 125 g/ha [4, 18] was 0% and the pest or weed control at 125 g/ha [5] was 20%. The pest or weed control at 125 g/ha [6] was 50%, the pest or weed control at 500 g/ha [6] was 60% and the pest or weed control at 125 g/ha (Kochia (Kochia scoparia) [7]) was 0%. The pest or weed control at 500 g/ha (Kochia (Kochia scoparia) [7]) was 70%, the pest or weed control at 125 g/ha [8] was 90% and the pest or weed control at 500 g/ha [8] was 90%. The pest or weed control at 125 g/ha [9] was 50%, the pest or weed control at 500 g/ha [9] was 60% and the plant injury at 125 g/ha (corn (Zea mays)) was 50%. The Corn plant response rating (crop injury, 0 = no effect, 100 = complete kill) at 500 g/ha (corn (Zea mays)) was 70%, the pest or weed control at 125 g/ha [10] was 90% and the pest or weed control at 500 g/ha [10] was 90%. It also gave a pest or weed control at 125 g/ha [11] of 0%, a pest or weed control at 500 g/ha [11] of 0% and a pest or weed control at 125 g/ha [12] of 0%. For the same molecule, the pest or weed control at 500 g/ha [12] was 50%, the pest or weed control at 125 g/ha [13] was 40% and the pest or weed control at 500 g/ha [13] was 70%. The plant injury at 125 g/ha [14] was 50% and the plant injury at 500 g/ha [14] was 70%.

Cc1c(F)ccc([C@H]2CNC(=O)[C@@H]2C(=O)Nc2cccc(F)c2F)c1F [Compound 1327] was tested, and the pest or weed control at 500 g/ha (Kochia (Kochia scoparia) [1]; [15]) was 90%, the pest or weed control at 125 g/ha (Kochia (Kochia scoparia) [1]; [15]) was 100% and the pest or weed control at 500 g/ha [2, 16] was 90%. For the same molecule, the pest or weed control at 125 g/ha [2, 16] was 90%, the pest or weed control at 500 g/ha [3, 17] was 30% and the pest or weed control at 125 g/ha [3, 17] was 0%. The pest or weed control at 500 g/ha [4, 18] was 0%, the pest or weed control at 125 g/ha [4, 18] was 0% and the pest or weed control at 500 g/ha [5] was 20%. For the same molecule, the pest or weed control at 125 g/ha [5] was 20%, the pest or weed control at 125 g/ha [6] was 30% and the pest or weed control at 500 g/ha [6] was 50%. For the same molecule, the pest or weed control at 125 g/ha (Kochia (Kochia scoparia) [7]) was 0%, the pest or weed control at 500 g/ha (Kochia (Kochia scoparia) [7]) was 30% and the pest or weed control at 125 g/ha [8] was 90%. It also gave a pest or weed control at 500 g/ha [8] of 90%, a pest or weed control at 125 g/ha [9] of 0% and a pest or weed control at 500 g/ha [9] of 20%. For the same molecule, the plant injury at 125 g/ha (corn (Zea mays)) was 0%, the Corn plant response rating (crop injury, 0 = no effect, 100 = complete kill) at 500 g/ha (corn (Zea mays)) was 0% and the pest or weed control at 125 g/ha [10] was 20%. The pest or weed control at 500 g/ha [10] was 70%, the pest or weed control at 125 g/ha [11] was 0% and the pest or weed control at 500 g/ha [11] was 0%. For the same molecule, the pest or weed control at 125 g/ha [12] was 0%, the pest or weed control at 500 g/ha [12] was 20% and the pest or weed control at 125 g/ha [13] was 0%. The pest or weed control at 500 g/ha [13] was 40%, the plant injury at 125 g/ha [14] was 0% and the plant injury at 500 g/ha [14] was 0%.

Cc1c(F)ccc([C@H]2CNC(=O)[C@@H]2C(=O)Nc2ccc(F)cc2F)c1F [Compound 1328] was tested, and the pest or weed control at 500 g/ha (Kochia (Kochia scoparia) [1]; [15]) was 50%, the pest or weed control at 125 g/ha (Kochia (Kochia scoparia) [1]; [15]) was 30% and the pest or weed control at 500 g/ha [2, 16] was 90%. The pest or weed control at 125 g/ha [2, 16] was 70%, the pest or weed control at 500 g/ha [3, 17] was 0% and the pest or weed control at 125 g/ha [3, 17] was 0%. The pest or weed control at 500 g/ha [4, 18] was 0%, the pest or weed control at 125 g/ha [4, 18] was 0% and the pest or weed control at 500 g/ha [5] was 30%. The pest or weed control at 125 g/ha [5] was 0%, the pest or weed control at 125 g/ha [6] was 0% and the pest or weed control at 500 g/ha [6] was 30%. For the same molecule, the pest or weed control at 125 g/ha (Kochia (Kochia scoparia) [7]) was 0%, the pest or weed control at 500 g/ha (Kochia (Kochia scoparia) [7]) was 0% and the pest or weed control at 125 g/ha [8] was 60%. For the same molecule, the pest or weed control at 500 g/ha [8] was 90%, the pest or weed control at 125 g/ha [9] was 0% and the pest or weed control at 500 g/ha [9] was 0%. The plant injury at 125 g/ha (corn (Zea mays)) was 0%, the Corn plant response rating (crop injury, 0 = no effect, 100 = complete kill) at 500 g/ha (corn (Zea mays)) was 0% and the pest or weed control at 125 g/ha [10] was 0%. The pest or weed control at 500 g/ha [10] was 40%, the pest or weed control at 125 g/ha [11] was 0% and the pest or weed control at 500 g/ha [11] was 0%. For the same molecule, the pest or weed control at 125 g/ha [12] was 0%, the pest or weed control at 500 g/ha [12] was 0% and the pest or weed control at 125 g/ha [13] was 0%. For the same molecule, the pest or weed control at 500 g/ha [13] was 30%, the plant injury at 125 g/ha [14] was 0% and the plant injury at 500 g/ha [14] was 0%.

Reference: patent publication US12077503B2, “Substituted cyclic amides and their use as herbicides” (FMC CORPORATION, priority 2015, dated 2024)
